According to ChEMBL document CHEMBL3044980, “Free radical scavenging and hepatoprotective effects of salidroside analogs on CCl4-induced cytotoxicity in LO2 cells” (Med Chem Res, 2013):
Blank lines part the entries; values can stand above or below the molecule they belong to. Activity calls are given as the source filed them. No cut-off for these calls is given here.

Legend:
[1] = Antioxidant activity assessed as decrease in initial DPPH concentration after 30 min by MicroELISA reader analysis; assay type: functional
[2] = test system: L02; experiment: Hepatoprotective activity in Homo sapiens (human) LO2 cells assessed as reversal of CCl4-induced decrease in superoxide dismutase activity at 1 mM treated prior to CCl4 addition measured after 24 hr by xanthine/xanthine oxidase assay (CCl4 Rvb = 47 +/-4.4%); assay type: functional; set-up: scale not given: the % may be the effect or the level left
[3] = test system: L02; experiment: Hepatoprotective activity in Homo sapiens (human) LO2 cells assessed as reversal of CCl4-induced decrease in superoxide dismutase activity at 10 mM treated prior to CCl4 addition measured after 24 hr by xanthine/xanthine oxidase assay (CCl4 Rvb = 47 +/-4.4%); assay type: functional; set-up: scale not given: the % may be the effect or the level left
[4] = test system: L02; experiment: Hepatoprotective activity in Homo sapiens (human) LO2 cells assessed as reversal of CCl4-induced increase in malondialdehyde level at […] treated prior to CCl4 addition measured after 24 hr (CCl4 Rvb = 170 +/-4.3%); assay type: functional
[5] = test system: L02; experiment: Hepatoprotective activity in Homo sapiens (human) LO2 cells assessed as reversal of CCl4-induced decrease in GSH-Px activity at […] treated prior to CCl4 addition measured after 24 hr (CCl4 Rvb = 49 +/-3.8%); assay type: functional; set-up: scale not given: the % may be the effect or the level left
[6] = test system: L02; experiment: Hepatoprotective activity in Homo sapiens (human) LO2 cells assessed as reversal of CCl4-induced decrease in superoxide dismutase activity at 50 mM treated prior to CCl4 addition measured after 24 hr by xanthine/xanthine oxidase assay (CCl4 Rvb = 47 +/-4.4%); assay type: functional; set-up: scale not given: the % may be the effect or the level left
[7] = test system: L02; experiment: Hepatoprotective activity in Homo sapiens (human) LO2 cells assessed as reversal of CCl4-induced decrease in GSH-Px activity at 50 mM treated prior to CCl4 addition measured after 24 hr (CCl4 Rvb = 49 +/-3.8%); assay type: functional; set-up: scale not given: the % may be the effect or the level left
[8] = test system: L02; experiment: Hepatoprotective activity in Homo sapiens (human) LO2 cells assessed as protection against CCl4-induced cytotoxicity at 50 to […] treated prior to CCl4 addition measured after 24 hr by MTT assay; assay type: functional, cell-based
[9] = test system: L02; experiment: Hepatoprotective activity in Homo sapiens (human) LO2 cells assessed as reversal of CCl4-induced decrease in superoxide dismutase activity at […] treated prior to CCl4 addition measured after 24 hr by xanthine/xanthine oxidase assay (CCl4 Rvb = 47 +/-4.4%); assay type: functional; set-up: scale not given: the % may be the effect or the level left
[10] = test system: L02; experiment: Hepatoprotective activity in Homo sapiens (human) LO2 cells assessed as protection against CCl4-induced cytotoxicity at […] treated prior to CCl4 addition measured after 24 hr by MTT assay; assay type: functional, cell-based
[11] = test system: L02; experiment: Hepatoprotective activity in Homo sapiens (human) LO2 cells assessed as reversal of CCl4-induced increase in malondialdehyde level at 50 mM treated prior to CCl4 addition measured after 24 hr (CCl4 Rvb = 170 +/-4.3%); assay type: functional
[12] = test system: L02; experiment: Hepatoprotective activity in Homo sapiens (human) LO2 cells assessed as protection against CCl4-induced cytotoxicity at 10 to […] treated prior to CCl4 addition measured after 24 hr by MTT assay; assay type: functional, cell-based
[13] = test system: L02; experiment: Hepatoprotective activity in Homo sapiens (human) LO2 cells assessed as reversal of CCl4-induced increase in malondialdehyde level at 1 mM treated prior to CCl4 addition measured after 24 hr (CCl4 Rvb = 170 +/-4.3%); assay type: functional
[14] = test system: L02; experiment: Hepatoprotective activity in Homo sapiens (human) LO2 cells assessed as reversal of CCl4-induced decrease in GSH-Px activity at 10 mM treated prior to CCl4 addition measured after 24 hr (CCl4 Rvb = 49 +/-3.8%); assay type: functional; set-up: scale not given: the % may be the effect or the level left
[15] = test system: L02; experiment: Hepatoprotective activity in Homo sapiens (human) LO2 cells assessed as reversal of CCl4-induced increase in malondialdehyde level at 10 mM treated prior to CCl4 addition measured after 24 hr (CCl4 Rvb = 170 +/-4.3%); assay type: functional
[16] = test system: L02; experiment: Hepatoprotective activity in Homo sapiens (human) LO2 cells assessed as reversal of CCl4-induced decrease in GSH-Px activity at 1 mM treated prior to CCl4 addition measured after 24 hr (CCl4 Rvb = 49 +/-3.8%); assay type: functional; set-up: scale not given: the % may be the effect or the level left

- IC50 [1]: 40.8 µM
Structure (SMILES): COc1cc(CCO[C@@H]2O[C@H](CO)[C@H](O)[C@H](O)[C@H]2O)ccc1O

- IC50 [1]: 38.1 µM
Structure (SMILES): OC[C@H]1O[C@@H](OCCc2cc(O)c(O)c(O)c2)[C@H](O)[C@@H](O)[C@@H]1O
- Activity [2]: 50%
- Activity [3]: 55%
- Activity [4]: 117%
- Activity [5]: 80%
- Activity [6]: 70%
- Activity [7]: 71%
- Activity [8]: Active
- Activity [9]: 83%
- Activity [10]: Active
- Activity [11]: 128%
- Activity [12]: Active
- Activity [13]: 167%
- Activity [14]: 57%
- Activity [15]: 151%
- Activity [16]: 54%

- IC50 [1]: 70.1 µM
Structure (SMILES): COc1cc(CCO[C@@H]2O[C@H](CO)[C@H](O)[C@H](O)[C@H]2O)cc(OC)c1O

- IC50 [1]: 59.8 µM
Structure (SMILES): COc1cc(CCO[C@@H]2O[C@H](CO)[C@@H](O)[C@H](O)[C@H]2O)ccc1O

- IC50 [1]: 61.6 µM
Structure (SMILES): COc1cc(CCO[C@@H]2O[C@H](CO)[C@@H](O)[C@H](O)[C@H]2O)cc(OC)c1O

The next lines start with the molecule.

Structure (SMILES): OC[C@H]1O[C@@H](OCCc2ccc(O)c(Br)c2)[C@H](O)[C@@H](O)[C@@H]1O
- IC50 [1]: > 100 µM

Structure (SMILES): OC[C@H]1O[C@@H](OCCc2cc(O)c(O)c(O)c2)[C@H](O)[C@@H](O)[C@H]1O
- Activity [2]: 54%
- Activity [3]: 65%
- Activity [4]: 110%
- Activity [5]: 86%
- Activity [6]: 76%
- Activity [7]: 78%
- Activity [8]: Active
- Activity [9]: 89%
- Activity [10]: Active
- Activity [11]: 119%
- Activity [12]: Active
- Activity [13]: 164%
- IC50 [1]: 35.9 µM
- Activity [14]: 64%
- Activity [15]: 141%
- Activity [16]: 55%

Structure (SMILES): OC[C@H]1O[C@@H](OCCc2ccc(O)c(Br)c2)[C@H](O)[C@@H](O)[C@H]1O
- IC50 [1]: > 100 µM

Structure (SMILES): OC[C@H]1O[C@@H](OCCc2cc(Br)c(O)c(Br)c2)[C@H](O)[C@@H](O)[C@H]1O
- IC50 [1]: > 100 µM

Structure (SMILES): CCOc1cc(CCO[C@@H]2O[C@H](CO)[C@@H](O)[C@H](O)[C@H]2O)ccc1O
- IC50 [1]: 66.8 µM

Structure (SMILES): OC[C@H]1O[C@@H](OCCc2cc(Br)c(O)c(Br)c2)[C@H](O)[C@@H](O)[C@@H]1O
- IC50 [1]: > 100 µM

Structure (SMILES): O=C1O[C@H]([C@@H](O)CO)C(O)=C1O [ASCORBIC ACID]
- IC50 [1]: 54.6 µM

Structure (SMILES): CCOc1cc(CCO[C@@H]2O[C@H](CO)[C@H](O)[C@H](O)[C@H]2O)ccc1O
- IC50 [1]: 87.5 µM

Structure (SMILES): OC[C@H]1O[C@@H](OCCc2ccc(O)cc2)[C@H](O)[C@@H](O)[C@@H]1O [SALIDROSIDE]
- Activity [2]: 49%
- Activity [3]: 52%
- Activity [4]: 157%
- Activity [5]: 61%
- Activity [6]: 56%
- Activity [7]: 56%
- Activity [8]: Active
- Activity [9]: 61%
- Activity [10]: Active
- Activity [11]: 162%
- Activity [12]: Active
- Activity [13]: 168%
- Activity [14]: 53%
- Activity [15]: 165%
- Activity [16]: 51%
